Measurements taken from patent publication EP4700021A1, “NOVEL COMPOUND AND PHARMACEUTICAL COMPOSITION COMPRISING SAME AS ACTIVE INGREDIENT” (Sapiensbio Inc., priority 2023, dated 2025).

Test system: α-SMA
Assay: in vitro α-SMA expression inhibition (immunostaining, confocal microscopy) in TGF-β1-treated MRC-5 cells
Assay type: cell-based, human
Details: Homo sapiens, TGF-β1 (5 ng/mL), 72 hours, standardized using GAPDH
Text: When scars are generated in tissue, fibroblasts undergo fibroblast-to-myofibroblast transition (FMT), and the resulting myofibroblasts produce the extracellular matrix, leading to tissue fibrosis. α-SMA is a representative biomarker of myofibroblasts, and its expression greatly increases as FMT progresses. Accordingly, through the evaluation of α-SMA expression inhibitory activity, the efficacy of the compounds in inhibiting fibrosis may be evaluated. Therefore, the inhibitory activity of the compounds of the present invention on α-SMA expression was evaluated in cells. To more accurately evaluate the inhibition of α-SMA expression, IC50 values were determined by treating human lung-derived fibroblasts (MRC-5 cells) with the compounds of the present invention in a concentration-dependent manner.
Specifically, 2 hours after the MRC-5 cells were treated with DMSO or compounds dissolved in serum containing 0.5% fetal bovine serum (FBS) in a concentration-dependent manner, fibrosis was induced by treatment with TGF-β1 (5 ng/mL). After 72 hours, the cells were immobilized with a 2% paraformaldehyde solution for 10 minutes, and to impart cell membrane permeability, a 0.1% Triton X-100 solution was treated for 10 minutes, and a 1% bovine serum albumin (BSA) solution was treated to prevent non-specific binding. For immunostaining, anti-GAPDH (BIO-RAD) was first treated as a primary antibody, and Alexa Fluor™ Plus 555 for GAPDH labeling was used as a secondary antibody. For α-SMA staining, an FITC fluorescence-tagged α-SMA primary antibody was used, and thus the increase and decrease in α-SMA caused by the compounds were evaluated. The immunohistochemical experimental results were confirmed with a STELLARIS 5 confocal microscope (Leica), and FITC-stained α-SMA was standardized using GAPDH labeled with Alexa FluorTM Plus 555 for quantification. The IC50 of the compounds according to the present invention was calculated through statistical analysis (linear mixed effects model). […]

O=C(NCC1CC1)N1CCN(c2ccc(F)cc2)c2cc(F)ccc21 [Compound 3, N-(cyclopropylmethyl)-6-fluoro-4-(4-fluorophenyl)-3,4-dihydroquinoxaline-1(2H)-carboxamide] and O=C(NCC1CC1)N1CCN(c2ccc(F)cc2)c2ccccc21 [Compound 6, N-(cyclopropylmethyl)-4-(4-fluorophenyl)-3,4-dihydroquinoxaline-1(2H)-carboxamide] fall in the same range of IC50: 1 to 10 µM for the first, 1 to 10 µM for the second.

O=C(N1CCCC1)N1CCN(c2ccccc2Cl)c2ccccc21 [Compound 8, (4-(2-chlorophenyl)-3,4-dihydroquinoxaline-1(2H)-yl)(pyrrolidin-1-yl)methanone] and O=C(N1CCOCC1)N1CCN(c2ccccc2Cl)c2ccccc21 [Compound 9, (4-(2-chlorophenyl)-3,4-dihydroquinoxaline-1(2H)-yl)(morpholino)methanone] cannot be ordered by IC50: 10 to 30 µM for the first, ≤ 30 µM for the second.

O=C(N1CCNCC1)N1CCN(c2ccccc2Cl)c2ccccc21 [Compound 10, (4-(2-chlorophenyl)-3,4-dihydroquinoxaline-1(2H)-yl)(piperazin-1-yl)methanone] and N[C@H]1CCN(C(=O)N2CCN(c3ccccn3)c3ccccc32)C1 [Compound 12, (S)-(3-aminopyrrolidin-1-yl)(4-(pyridin-2-yl)-3,4-dihydroquinoxaline-1(2H)-yl)methanone] cannot be ordered by IC50: < 1 µM for the first, ≤ 30 µM for the second.

CC(C)N1CC[C@H](NC(=O)N2CCN(c3ccccn3)c3ccccc32)C1 [Compound 11, (S)-N-(1-isopropylpyrrolidin-3-yl)-4-(pyridin-2-yl)-3,4-dihydroquinoxaline-1(2H)-carboxamide] and O=C(NC1CCNCC1)N1CCN(c2ccccn2)c2ccccc21 [Compound 13, N-(piperidin-4-yl)-4-(pyridin-2-yl)-3,4-dihydroquinoxaline-1(2H)-carboxamide] fall in the same range of IC50: 1 to 10 µM for the first, 1 to 10 µM for the second.

Compared with O=C(NC[C@@H]1CCNC1)N1CCN(c2ccccn2)c2ccccc21 [Compound 14, (R)-4-(pyridin-2-yl)-N-(pyrrolidin-3-ylmethyl)-3,4-dihydroquinoxaline-1(2H)-carboxamide], O=C(NC[C@H]1CCCN1)N1CCN(c2ccccn2)c2ccccc21 [Compound 15, (R)-4-(pyridin-2-yl)-N-(pyrrolidin-2-ylmethyl)-3,4-dihydroquinoxaline-1(2H)-carboxamide] is lower in IC50: 1 to 10 µM for the first, < 1 µM for the second. The second is the more potent here.

O=C(N[C@@H]1CCOC1)N1CCN(c2cccnc2)c2ccccc21 [Compound 16, (R)-4-(pyridin-3-yl)-N-(tetrahydrofuran-3-yl)-3,4-dihydroquinoxaline-1 (2H)-carboxamide] and O=C(N[C@H]1CCNC1)N1CCN(c2cnccn2)c2ccccc21 [Compound 19, (S)-4-(pyrazin-2-yl)-N-(pyrrolidin-3-yl)-3,4-dihydroquinoxaline-1(2H)-carboxamide] fall in the same range of IC50: 1 to 10 µM for the first, 1 to 10 µM for the second.

First: CN1CCC(NC(=O)N2CCN(c3ccc(F)cn3)c3ccccc32)CC1 [Compound 18, 4-(5-fluoropyridin-2-yl)-N-(1-methylpiperidin-4-yl)-3,4-dihydroquinoxaline-1(2H)-carboxamide]
Second: CN1CC[C@H](NC(=O)N2CCN(c3cnccn3)c3ccccc32)C1 [Compound 20, (S)-N-(1-methylpyrrolidin-3-yl)-4-(pyrazin-2-yl)-3,4-dihydroquinoxaline-1(2H)-carboxamide]
The IC50 of the first is higher: 1 to 10 µM for the first, < 1 µM for the second.

CC(C)CN1CC[C@H](NC(=O)N2CCN(c3cnccn3)c3ccccc32)C1 [Compound 22, (S)-N-(1-isobutylpyrrolidin-3-yl)-4-(pyrazin-2-yl)-3,4-dihydroquinoxaline-1(2H)-carboxamide] and CC(C)CN1CCC(NC(=O)N2CCN(c3cnccn3)c3ccccc32)CC1 [Compound 27, N-(1-isobutylpiperidin-4-yl)-4-(pyrazin-2-yl)-3,4-dihydroquinoxaline-1(2H)-carboxamide] cannot be ordered by IC50: ≤ 30 µM for the first, 10 to 30 µM for the second.

Compound O=C(NC1CCNCC1)N1CCN(c2cnccn2)c2ccccc21 [Compound 23, N-(piperidin-4-yl)-4-(pyrazin-2-yl)-3,4-dihydroquinoxaline-1(2H)-carboxamide] has an IC50 of 1 to 10 µM.
